Assays:
[1] = target: mTOR (human recombinant aa mTOR 1360-2549) (Homo sapiens (Human), UniProt P42345); test: mTOR enzymatic test by TR-FRET (phosphorylation of GFP-4EBP1); format: biochemical
Method in brief: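 TR-FRET detection of GFP-4EBP1 phosphorylation by a terbium-labelled anti-phospho-Thr46 antibody. Kinase reaction ran 30 min at room temperature, was quenched with EDTA (10 mM final) plus Tb-antibody (2 nM final) and left 60 min. Emission at 520 and 490 nm after 340 nm excitation, reported as the 520/490 ratio.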

PI3Kα (p110α/p85α) = PI3Kα (p110α/p85α) (Homo sapiens (Human), UniProt P42336); test: PI3Kα enzymatic test by measuring the consumption of ATP; format: biochemical
Chain of PI3Kα (p110α/p85α) (P42336 whole entry): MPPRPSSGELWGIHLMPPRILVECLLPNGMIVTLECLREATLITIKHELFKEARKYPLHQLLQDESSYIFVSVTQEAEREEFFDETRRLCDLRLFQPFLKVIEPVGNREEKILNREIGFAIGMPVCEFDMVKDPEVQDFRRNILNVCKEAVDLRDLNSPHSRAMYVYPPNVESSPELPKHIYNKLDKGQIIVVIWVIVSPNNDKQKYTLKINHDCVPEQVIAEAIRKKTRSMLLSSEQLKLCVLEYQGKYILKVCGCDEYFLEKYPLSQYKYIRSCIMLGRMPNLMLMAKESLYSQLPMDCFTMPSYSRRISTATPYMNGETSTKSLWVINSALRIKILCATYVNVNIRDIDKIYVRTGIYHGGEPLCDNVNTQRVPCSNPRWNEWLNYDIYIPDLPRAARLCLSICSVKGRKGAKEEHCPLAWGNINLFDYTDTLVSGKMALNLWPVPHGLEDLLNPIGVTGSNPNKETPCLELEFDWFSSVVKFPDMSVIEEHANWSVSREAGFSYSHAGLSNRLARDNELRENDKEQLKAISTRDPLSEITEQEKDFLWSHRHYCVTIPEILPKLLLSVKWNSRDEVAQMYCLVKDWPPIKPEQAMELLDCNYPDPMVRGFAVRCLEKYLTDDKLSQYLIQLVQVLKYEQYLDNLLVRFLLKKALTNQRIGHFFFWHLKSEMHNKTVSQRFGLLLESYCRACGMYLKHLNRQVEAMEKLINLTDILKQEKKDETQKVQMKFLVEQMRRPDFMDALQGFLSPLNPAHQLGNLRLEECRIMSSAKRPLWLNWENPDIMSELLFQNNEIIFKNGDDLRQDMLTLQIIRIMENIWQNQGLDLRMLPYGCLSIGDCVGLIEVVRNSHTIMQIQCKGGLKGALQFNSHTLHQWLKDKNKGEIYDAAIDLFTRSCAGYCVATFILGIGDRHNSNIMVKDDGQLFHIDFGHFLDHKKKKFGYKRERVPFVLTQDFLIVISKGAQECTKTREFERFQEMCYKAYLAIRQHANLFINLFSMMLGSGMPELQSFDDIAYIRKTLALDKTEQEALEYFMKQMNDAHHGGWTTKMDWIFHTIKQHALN
Chain of PI3Kα (p110α/p85α) (P27986 whole entry partner): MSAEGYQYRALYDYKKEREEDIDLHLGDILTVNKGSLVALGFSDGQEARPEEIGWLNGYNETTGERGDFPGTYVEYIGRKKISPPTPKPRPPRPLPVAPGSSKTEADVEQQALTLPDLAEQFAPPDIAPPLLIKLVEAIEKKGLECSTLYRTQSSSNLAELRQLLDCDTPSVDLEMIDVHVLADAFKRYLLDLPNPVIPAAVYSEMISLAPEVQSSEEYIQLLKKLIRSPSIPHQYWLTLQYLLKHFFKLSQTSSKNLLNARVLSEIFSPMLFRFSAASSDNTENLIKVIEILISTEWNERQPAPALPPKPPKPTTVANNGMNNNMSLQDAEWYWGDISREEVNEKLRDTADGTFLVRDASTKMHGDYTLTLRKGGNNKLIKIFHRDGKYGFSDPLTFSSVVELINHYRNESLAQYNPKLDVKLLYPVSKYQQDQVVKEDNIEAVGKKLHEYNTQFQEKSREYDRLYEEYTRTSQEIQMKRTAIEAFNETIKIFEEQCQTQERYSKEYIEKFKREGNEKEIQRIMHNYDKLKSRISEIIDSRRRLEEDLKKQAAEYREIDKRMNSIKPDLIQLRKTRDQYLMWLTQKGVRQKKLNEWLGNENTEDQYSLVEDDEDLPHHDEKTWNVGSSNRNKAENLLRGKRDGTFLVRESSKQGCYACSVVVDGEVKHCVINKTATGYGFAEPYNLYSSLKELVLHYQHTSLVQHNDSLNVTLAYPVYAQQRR
Method in brief: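 p110α/p85α (1.7 μg/ml) with 50 μM PIP2 and 2 μM ATP in pH 7.5 Tris buffer with EGTA, MgCl2, Chaps, DTT; reaction 90 min. Remaining ATP measured by luciferin/luciferase luminescence; IC50 from threefold serial dilutions spanning at least 10 000-fold.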

U87MG tumour cells = test: Test of in vitro proliferation of U87MG tumour cells; format: cell-based; conditions: Homo sapiens, U-87 MG, 72 h, U87MG cells, 72 hours; read-out: U87 Cell Proliferation IC50
Experimental: Model 4: Test of in vitro Proliferation of U87MG Tumour Cells.
The cell growth is determined with the reagent CellTiter 96 AQueous One Solution Cell Proliferation Assay from Promega (Cat. No. G3581).

Akt-pS473 in U87MG cells = conditions: Homo sapiens, U-87 MG; for IC50: read-out: U87 Akt-pS473 % Inhibition or IC50, nM (IC50), U87MG cells
Experimental: Model 3: Cellular Test of Phosphorylation of the Epitope S473 of the Akt Protein on the U87MG Line Via an ELISA Test
An electrochemiluminescence signal is generated by a ruthenium-labelled anti-rabbit antibody.
After culturing for 16-20 hours (the cells are at 100% of confluence) at 37° C. under 5% CO2, 1 μl of the chemical compounds in 100% DMSO (1% DMSO final concentration on the cells) is added. The cells are incubated with the compounds for 3 hours at 37° C. under 5% CO2.
The free sites are blocked with 150 μl/well of a buffer of 50 mM Tris pH 7.5, 0.15 M NaCl, 0.02% Tween 20, 3% BSA with stirring at 450 rpm for 1 hour at room temperature, followed by a step of washing with 3×300 μl of a buffer of 50 mM Tris pH 7.5, 0.15 M NaCl, 0.02% Tween 20.
15 μl of cell lysate are mixed with 15 μl of a 50 mM buffer of Tris pH 7.5, 0.15 M NaCl, 0.02% Tween 20, 1% BSA in a precoated ELISA plate (see above), and incubated for 1 hour at room temperature with stirring, followed by a step of washing with 3×300 μl of a buffer of 50 mM Tris pH 7.5, 0.15 M NaCl, 0.02% Tween 20. The pS473 epitope of Akt is detected with a rabbit polyclonal antibody (Cell Signaling, SC9271), diluted 100-fold in 50 mM Tris pH 7.5, 0.15 M NaCl, 0.02% Tween 20, 1% BSA, 25 μl/well (incubation for 1 hour at room temperature with stirring at 450 rpm).
After washing (see above), revelation is performed with a ruthenium-labelled anti-rabbit antibody (MSD R32AB1), diluted 3000-fold in a 50 mM buffer of Tris pH 7.5, 0.15 M NaCl, 0.02% Tween 20, 1% BSA, 25 μl/well, followed by incubation for 1 hour at room temperature with stirring at 450 rpm, and the plates are covered with aluminium.
After a further washing step, the plates are emptied and 150 μl of MSD Read Buffer T diluted fourfold with water are added. The electrochemiluminescence is measured on the MSD Sector Imager 6000.

Chain of mTOR (human recombinant aa mTOR 1360-2549) (P42345 1360-2549): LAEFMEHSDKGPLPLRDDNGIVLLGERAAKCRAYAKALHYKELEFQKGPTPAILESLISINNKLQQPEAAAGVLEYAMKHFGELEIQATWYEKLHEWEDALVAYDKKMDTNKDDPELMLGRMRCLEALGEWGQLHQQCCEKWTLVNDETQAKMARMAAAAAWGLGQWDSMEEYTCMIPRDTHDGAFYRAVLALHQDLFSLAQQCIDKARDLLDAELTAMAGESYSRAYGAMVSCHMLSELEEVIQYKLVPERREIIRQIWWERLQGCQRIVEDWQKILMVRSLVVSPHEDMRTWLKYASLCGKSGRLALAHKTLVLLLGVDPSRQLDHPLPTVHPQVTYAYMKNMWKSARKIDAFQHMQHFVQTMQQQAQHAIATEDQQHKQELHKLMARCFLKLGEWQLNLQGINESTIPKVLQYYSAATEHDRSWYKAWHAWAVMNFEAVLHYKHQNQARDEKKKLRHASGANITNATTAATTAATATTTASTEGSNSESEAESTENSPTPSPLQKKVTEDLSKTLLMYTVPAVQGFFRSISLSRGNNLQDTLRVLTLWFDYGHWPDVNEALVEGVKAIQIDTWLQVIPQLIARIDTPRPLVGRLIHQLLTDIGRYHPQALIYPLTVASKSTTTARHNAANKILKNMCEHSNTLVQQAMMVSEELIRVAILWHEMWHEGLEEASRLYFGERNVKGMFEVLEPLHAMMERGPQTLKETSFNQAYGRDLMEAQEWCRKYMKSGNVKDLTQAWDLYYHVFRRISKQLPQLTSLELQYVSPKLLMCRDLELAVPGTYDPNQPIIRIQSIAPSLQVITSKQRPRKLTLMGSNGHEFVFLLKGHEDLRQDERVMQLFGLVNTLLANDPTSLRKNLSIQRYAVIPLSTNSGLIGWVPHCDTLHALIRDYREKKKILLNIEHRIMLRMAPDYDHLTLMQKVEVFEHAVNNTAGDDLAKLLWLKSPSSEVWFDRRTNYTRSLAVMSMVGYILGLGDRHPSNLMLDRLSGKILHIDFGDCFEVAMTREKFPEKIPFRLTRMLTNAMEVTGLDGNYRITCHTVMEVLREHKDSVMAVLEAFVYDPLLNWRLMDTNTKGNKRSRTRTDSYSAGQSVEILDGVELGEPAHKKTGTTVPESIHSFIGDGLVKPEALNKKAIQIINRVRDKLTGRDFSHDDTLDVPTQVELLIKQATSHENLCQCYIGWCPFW

| Structure (SMILES) | IC50 [1] [nM] | PI3Ka IC50 (PI3Kα (p110α/p85α)) [nM] | IC50 (U87MG tumour cells) [nM] | IC50 (Akt-pS473 in U87MG cells) [nM] | inhibition at 3 µM (Akt-pS473 in U87MG cells; read-out: U87 Akt-pS473 % Inhibition) [%] |
| --- | --- | --- | --- | --- | --- |
| CCN1CC(C)(C)Oc2nc(N3CCOC[C@@H]3C)nc(-c3ccc(NC(=O)Nc4cccc(OC(F)F)c4)c(F)c3)c2C1=O [Example 212, 1-(3-Difluoromethoxyphenyl)-3-{4-[6-ethyl-8,8-dimethyl-2-((S)-3-methylmorpholin-4-yl)-5-oxo-5,6,7,8-tetrahydro-9-oxa-1,3,6-triazabenzocyclohepten-4-yl]-2-fluorophenyl}urea] | 141 | 1540 | 71 | 8 | – |
| CCN1CC(C)(C)Oc2nc(N3CCOC[C@@H]3C)nc(-c3ccc(NC(=O)Nc4cc(OC)ccc4F)cc3)c2C1=O [Example 213, 1-{4-[6-Ethyl-8,8-dimethyl-2-((S)-3-methylmorpholin-4-yl)-5-oxo-5,6,7,8-tetrahydro-9-oxa-1,3,6-triazabenzocyclohepten-4-yl]phenyl}-3-(2-fluoro-5-methoxyphenyl)urea] | 48 | 991 | 103 | 20 | – |
| CCN1CC(C)(C)Oc2nc(N3CCOC[C@@H]3C)nc(-c3ccc(NC(=O)OCC(C)(C)O)cc3)c2C1=O [Example 214, {4-[6-Ethyl-8,8-dimethyl-2-((S)-3-methylmorpholin-4-yl)-5-oxo-5,6,7,8-tetrahydro-9-oxa-1,3,6-triazabenzocyclohepten-4-yl]phenyl}carbamic acid 2-hydroxy-2-methylpropyl ester] | 2450 | >10000 | > 10000 | > 1000 | – |
| CCN1CC(C)(C)Oc2nc(N3CCOC[C@@H]3C)nc(-c3ccc(NC(=O)Nc4ccc(C(=O)N(C)CCN(C)C)cc4)cc3)c2C1=O [Example 215, N-(2-Dimethylamino-ethyl)-4-(3-{4-[6-ethyl-8,8-dimethyl-2-((S)-3-methylmorpholin-4-yl)-5-oxo-5,6,7,8-tetrahydro-9-oxa-1,3,6-triazabenzocyclohepten-4-yl]phenyl}ureido)-N-methylbenzamide] | 48 | 37 | 32 | 33 | – |
| CCNC(=O)Nc1ccc(-c2nc(N3CC4CCC(C3)O4)nc3c2C(=O)N(CCOC)CC(C)(C)O3)cc1 [Example 217, 1-Ethyl-3-{4-[6-(2-methoxyethyl)-8,8-dimethyl-2-(8-oxa-3-azabicyclo[3.2.1]oct-3-yl)-5-oxo-5,6,7,8-tetrahydro-9-oxa-1,3,6-triazabenzocyclohepten-4-yl]phenyl}urea] | 59 | >10000 | 1760 | – | 80 |
| CCN1CC(C)(C)Oc2nc(N3CCOC[C@@H]3C)nc(-c3ccc(NC(=O)Nc4ccc(N5CCN(C)CC5)cn4)cc3)c2C1=O [Example 218, 1-{4-[6-Ethyl-8,8-dimethyl-2-((S)-3-methylmorpholin-4-yl)-5-oxo-5,6,7,8-tetrahydro-9-oxa-1,3,6-triazabenzocyclohepten-4-yl]phenyl}-3-[5-(4-methylpiperazin-1-yl)pyridin-2-yl]urea] | 58 | 1060 | 211 | 17 | – |
| CCN1CC(C)(C)Oc2nc(N3CCOC[C@@H]3C)nc(-c3ccc(NC(=O)Nc4ccc(C(=O)NCC(C)(C)O)cc4)cc3)c2C1=O [Example 219, 4-(3-{4-[6-Ethyl-8,8-dimethyl-2-((S)-3-methylmorpholin-4-yl)-5-oxo-5,6,7,8-tetrahydro-9-oxa-1,3,6-triazabenzocyclohepten-4-yl]phenyl}ureido)-N-(2-hydroxy-2-methylpropyl)benzamide] | 38 | 98 | 436 | 28 | – |
| CCN1CC(C)(C)Oc2nc(N3CCOC[C@@H]3C)nc(-c3ccc(NC(=O)Nc4ccccn4)cc3)c2C1=O [Example 221, 1-{4-[6-Ethyl-8,8-dimethyl-2-((S)-3-methylmorpholin-4-yl)-5-oxo-5,6,7,8-tetrahydro-9-oxa-1,3,6-triazabenzocyclohepten-4-yl]phenyl}-3-pyridin-2-ylurea] | 13 | 372 | 137 | 11 | – |
| CCN1CC(C)(C)Oc2nc(N3CC4CCC(C3)O4)nc(-c3ccc(NC(=O)OCCO)c(F)c3)c2C1=O [Example 222, {4-[6-Ethyl-8,8-dimethyl-2-(8-oxa-3-azabicyclo[3.2.1]oct-3-yl)-5-oxo-5,6,7,8-tetrahydro-9-oxa-1,3,6-triazabenzocyclohepten-4-yl]-2-fluorophenyl}carbamic acid 2-hydroxyethyl ester] | 123 | >10000 | 1680 | 213 | – |
| CCN1CC(C)(C)Oc2nc(N3CC4CCC(C3)O4)nc(-c3ccc(NC(=O)Nc4cccnc4)c(F)c3)c2C1=O [Example 223, 1-{4-[6-Ethyl-8,8-dimethyl-2-(8-oxa-3-azabicyclo[3.2.1]oct-3-yl)-5-oxo-5,6,7,8-tetrahydro-9-oxa-1,3,6-triazabenzocyclohepten-4-yl]-2-fluorophenyl}-3-pyridin-3-ylurea] | 20 | 2070 | 61 | 4 | – |
| CNC(=O)Nc1ccc(-c2nc(N3CCOC[C@@H]3C)nc3c2C(=O)N(CCOC)CC(C)(C)O3)cc1F [Example 225, 1-{2-Fluoro-4-[6-(2-methoxyethyl)-8,8-dimethyl-2-((S)-3-methylmorpholin-4-yl)-5-oxo-5,6,7,8-tetrahydro-9-oxa-1,3,6-triazabenzocyclohepten-4-yl]phenyl}-3-methylurea] | 36 | 1360 | 365 | 91 | – |
| CCN1CC(C)(C)Oc2nc(N3CCOC[C@@H]3C)nc(-c3ccc(NC(=O)Nc4ccc(N5CCOCC5)cc4)c(F)c3)c2C1=O [Example 227, 1-{4-[6-Ethyl-8,8-dimethyl-2-((S)-3-methylmorpholin-4-yl)-5-oxo-5,6,7,8-tetrahydro-9-oxa-1,3,6-triazabenzocyclohepten-4-yl]-2-fluorophenyl}-3-(4-morpholin-4-ylphenyl)urea] | 76 | 484 | 29 | 7 | – |
| CC[C@H]1COCCN1c1nc2c(c(-c3ccc(NC(=O)NC)c(F)c3)n1)C(=O)N(CC)CC(C)(C)O2 [Example 228, 1-{4-[6-Ethyl-2-((S)-3-ethylmorpholin-4-yl)-8,8-dimethyl-5-oxo-5,6,7,8-tetrahydro-9-oxa-1,3,6-triazabenzocyclohepten-4-yl]-2-fluorophenyl}-3-methylurea] | 70 | 6600 | 229 | 72 | – |
| CCN1CC(C)(C)Oc2nc(N3C4CCC3COC4)nc(-c3ccc(NC(=O)Nc4ccc(C)nc4)c(F)c3)c2C1=O [Example 229, 1-{4-[6-Ethyl-8,8-dimethyl-2-(3-oxa-8-azabicyclo[3.2.1]oct-8-yl)-5-oxo-5,6,7,8-tetrahydro-9-oxa-1,3,6-triazabenzocyclohepten-4-yl]-2-fluorophenyl}-3-(6-methylpyridin-3-yl)urea] | 43 | >10000 | 86 | 19 | – |
| CCN1CC(C)(C)Oc2nc(N3CC4CCC(C3)O4)nc(-c3ccc(NC(=O)Nc4ccc(C(F)(F)F)nc4)c(F)c3)c2C1=O [Example 230, 1-{4-[6-Ethyl-8,8-dimethyl-2-(8-oxa-3-azabicyclo[3.2.1]oct-3-yl)-5-oxo-5,6,7,8-tetrahydro-9-oxa-1,3,6-triazabenzocyclohepten-4-yl]-2-fluorophenyl}-3-(6-trifluoromethylpyridin-3-yl)urea] | 77 | >10000 | 58 | 18 | – |
| CCN1CC(C)(C)Oc2nc(N3CCOC[C@@H]3C)nc(-c3ccc(NC(=O)Nc4ccncc4)c(F)c3)c2C1=O [Example 231, 1-{4-[6-Ethyl-8,8-dimethyl-2-((S)-3-methylmorpholin-4-yl)-5-oxo-5,6,7,8-tetrahydro-9-oxa-1,3,6-triazabenzocyclohepten-4-yl]-2-fluorophenyl}-3-pyridin-4-ylurea] | 16 | 103 | 29 | 12 | – |
| CCN1CC(C)(C)Oc2nc(N3CCOC[C@@H]3C)nc(-c3ccc(NC(=O)Nc4cnc(N5CCOCC5)cn4)cc3)c2C1=O [Example 232, 1-{4-[6-Ethyl-8,8-dimethyl-2-((S)-3-methylmorpholin-4-yl)-5-oxo-5,6,7,8-tetrahydro-9-oxa-1,3,6-triazabenzocyclohepten-4-yl]phenyl}-3-(5-morpholin-4-ylpyrazin-2-yl)urea] | 32 | 5630 | 95 | 26 | – |
| CCN1CC(C)(C)Oc2nc(N3CC4CCC(C3)O4)nc(-c3ccc(NC(=O)Nc4cnc(N5CCOCC5)cn4)c(F)c3)c2C1=O [Example 233, 1-{4-[6-Ethyl-8,8-dimethyl-2-(8-oxa-3-azabicyclo[3.2.1]oct-3-yl)-5-oxo-5,6,7,8-tetrahydro-9-oxa-1,3,6-triazabenzocyclohepten-4-yl]-2-fluorophenyl}-3-(5-morpholin-4-ylpyrazin-2-yl)urea] | 68 | >10000 | 908 | 87 | – |

Source: patent US9120812B2, “Pyrimidooxazocine derivatives as mTOR-inhibitors” (SANOFI, priority 2012, dated 2015)
